Experimental data: PMC4901077, “Development and Identification of a Novel Anti-HIV-1 Peptide Derived by Modification of the N-Terminal Domain of HIV-1 Integrase” (Frontiers in Microbiology, 2016)
Read-outs that look alike come from different tables or passages of the source. Marks after values point to notes of the source that are not given here. Peptide text beside a SMILES is read from it.

Key:
[1] = biological target: T1, HIV-1 IN-IN subunit exchange (Human immunodeficiency virus type 1 group M subtype B, UniProt P04585); test: HTRF-based IN subunit exchange assay (IN-IN dimerization); format: binding; conditions: for IC50: concentration required to inhibit the HIV-1 IN-IN subunit exchange by 50%, HTRF, His- and FLAG-tagged IN; for IN-IN subunit exchange, percentage of control: measured in the presence of 100 μM concentration
T1 construct: Full-length IN and LEDGF proteins were expressed in E. coli BL21(DE3); made in house; host or cells: E. coli BL21(DE3)
Description: (§1) Full-length IN and LEDGF proteins were expressed in E. coli BL21(DE3) and were purified as described (Kessl et al., [2012]; Esposito et al., [2015]; Tintori et al., [2015]). His- and FLAG-tagged INs, were mixed in 25 mM Tris (pH 7.4) buffer containing 150 mM NaCl, 2 mM MgCl2, 0.1% Nonidet P-40, 1 mg/ml BSA. Test compounds were then added to the mixture. A mixture of anti-His6-XL665 and anti-FLAG-EuCryptate antibodies were then added to the reaction and, after an incubation, the plate are read and the HTRF signal is calculated from the 665/620 nm ratio.
(§2) In this assay two IN preparation are used: a first His-tagged IN preparation, and a second Flag-tagged IN preparation. In both preparations the purified IN is at equilibrium as a dimer; such dimers go through monomers exchange. […] The formation of this “hybrid” dimer can be monitored in the HTRF-based assay as described (Esposito et al., [2015]; Tintori et al., [2015]). When the assay is performed in the presence of a compound inhibiting dimerization, the HTRF signal decreases as the concentration of compound increases, whereas in the presence of a compound promoting IN multimerization (association of dimers) the HTRF signal increases as the concentration of the compound increases.

HIV-1 IN multimerization = biological target: T2, HIV-1 IN multimerization (Human immunodeficiency virus type 1 group M subtype B, UniProt P04585); test: HTRF-based IN multimerization assay; format: binding; conditions: for EC50: concentration stimulating the Multimerization Increase by 50%, HTRF, read-out: IN-multim MI50; for IN multimerization signal, % of control at 100 µM: measured in the presence of 100 μM concentration, read-out: IN-multim, percentage of control
T2 construct: Full-length IN and LEDGF proteins were expressed in E. coli BL21(DE3); made in house; host or cells: E. coli BL21(DE3)
Description: as §1, §2

[2] = biological target: T3, Full-length recombinant HIV-1 integrase (Human immunodeficiency virus type 1 group M subtype B, UniProt P04585); test: HIV-1 IN activity inhibition assay (Xpressbio HIV-1 IN Assay kit, 3'-processing/strand transfer); format: biochemical
T3 construct: Full-length recombinant HIV-1 integrase protein was then loaded onto this oligo substrate; purchased Xpressbio Life Science Products (Express Biotech International)
Description: Express Biotech International Company performed this assay using its HIV-1 IN Assay kit (Xpressbio Life Science Products, USA. www.xpressbio.com). Briefly, Streptavidin coated 96-well plates were coated with a double-stranded HIV-1 LTR U5 donor substrate (DS) oligonucleotide containing an end-labeled biotin. Full-length recombinant HIV-1 integrase protein was then loaded onto this oligo substrate. Compounds were added to the reaction and then a different double-stranded target substrate (TS) oligo containing 3′-end modifications was added to the plate. The sequence of DS DNA and TS DNA substrates used in this assay were
respectively (Hazuda et al., [1994] and Engelman et al., [1993]). The HIV-1 IN cleaves the terminal two bases from the exposed 3′-end of the HIV-1 LTR DS and then catalyzes a strand-transfer reaction to integrate the DS into the TS. The products of the reaction were detected colorimetrically using an HRP-labeled antibody directed against the TS 3′-end modification. Percent inhibition in the IN assay was calculated and IC50 values were determined.

[3] = Table 1, colorimetric HRP read-out, ±SD, read-out: IN inhibition IC50(μM) ±SD
[4] = Table 2, colorimetric HRP read-out, read-out: IN inhibition IC50

| Compound | IC50 [1] [µM] | IN-IN subunit exchange, percentage of control [1] | EC50 (HIV-1 IN multimerization) [µM] | IC50 [2, 3] [µM] | IC50 [2, 4] [µM] | IN multimerization signal, % of control at 100 µM (HIV-1 IN multimerization) [%] |
| --- | --- | --- | --- | --- | --- | --- |
| CCCC(C(=O)O)c1c(C)nc2ccc(Cl)cc2c1-c1ccccc1 (stereo not drawn) [LEDGIN-6, reference compound] | > 100 | >100 (100%) | 10 ± 1 | – | – | – |
| CC[C@H](C)[C@H](NC(=O)[C@H](CCC(=O)O)NC(=O)[C@H](CCCCN)NC(C)=O)C(=O)N[C@H](C(=O)N[C@@H](C)C(=O)N[C@@H](CO)C(=O)N[C@@H](CS)C(=O)N[C@@H](CC(=O)O)C(=O)N[C@@H](CCCCN)C(=O)N[C@@H](CS)C(N)=O)C(C)C [Peptide 12] (Ac-KEIVASCDKC-NH2) | – | – | – | 477 ± 23 | – | – |
| Ac-DFNLPPVVAK-NH2 [Peptide 9] | – | – | – | 213 ± 12 | – | – |
| Ac-GIDKAQDEHE-NH2 [Peptide 2] | – | – | – | 162 ± 9 | – | – |
| Ac-VFAKEIVAH-NH2 [Peptide 20] | – | – | – | – | 375 ± 19 | – |
| Ac-VVAAEIVAH-NH2 [Peptide 24] | 32 ± 3 | – | > 100 | – | 20.8 ± 1.3 | 100 |
| Ac-VVAKAIVAH-NH2 [Peptide 25] | > 100 | >100 (100%) | 4.8 ± 0.4 | – | 13 ± 1 | – |
| Ac-VVAKEIFAH-NH2 [Peptide 21] | – | – | – | – | 504 ± 22 | – |
| Ac-VVAKEIVAH-NH2 [Peptide 18] | > 100 | >100 (100%)^b | > 100 | 4.5 ± 0.9 | – | 100 |
